≈ marks a conversion by molar mass, not a printed value. Like-named read-outs stand apart in the source and are kept apart here. Where no end group is shown, it is not given here.
What was measured:
[1] = system: Gram-negative bacterial strains; test: organism not typed; details: for MIC: read-out: GM (mean MIC of Gram-negative bacterial strains); for GM (mean MIC of Gram-negative bacterial strains): seven Gram-negative strains, 256 assumed for MIC > 128 and 1024 for MIC > 512 μg·mL^−1
Excerpt: (§1) The Gram-negative bacterial strain Escherichia coli (KCTC 1682) and Gram-positive bacterial strain Staphylococcus aureus (KCTC 1621) were purchased from the Korean Collection for Type Cultures (Jeongeup, Korea). Acinetobacter baumannii (KCCM 40203) were purchased from Korea Culture Center of Microorganisms (Seoul, Korea). Additionally, five carbapenem-resistant Acinetobacter baumanii C1–C5 (CRAB C1–C5), which have the OXA-23 gene with carbapenem-resistance were collected from the patients with CRAB bacteremia, who presented symptoms and signs of infection at Korea University Anam Hospital (Seoul, Korea) (IRB registration no. 2020AN0157). The minimum inhibitory concentrations (MIC) of the AMP and antibiotics against the various bacterial strains were assessed using the serial dilution method on Muller–Hinton (MH) media, as described previously. […] Absorbance at 600 nm was measured using a SpectraMAX microplate reader (Molecular Devices, San Jose, CA, USA).
Geometric means (GM) were calculated to compare the relative antimicrobial activities of the analogs against Gram-negative bacteria. […] Next, the antibacterial mechanisms of peptides were investigated.

CRAB C1 biofilm = test: Biofilm inhibition, crystal violet; format: cell-based, carbapenem-resistant Acinetobacter baumannii; details: Acinetobacter baumannii, read-out: percentage of biofilm inhibition
Experimental: CRAB C1 cells (2 × 10^5 CFU·mL^−^1) were incubated with PapMA-3 and antibiotics in a tissue-culture well plate in MH medium containing 0.2% glucose for 16 h at 37 °C. The cells were stained with 0.1% (w/v) crystal violet in 0.25% (v/v) acetic acid for 1 h at room temperature; the dye complex was dissolved with ethanol. Absorbance at 595 nm was measured using SpectraMAX microplate reader (Molecular Devices) to quantify the biofilm formation.
Biofilms were quantified by staining with crystal violet. (A) Absorbance of crystal violet-stained biofilms with treatment of PapMA-3 and antibiotics at a concentration range of 32 to 512 μg·mL^−1, assessed at 595 nm. […] CRAB C1 without peptides or antibiotics served as the control (red). Statistical analysis was performed using two-way ANOVA with Dunnett’s comparison test. The values are expressed as the mean ± SEM of three independent experiments and are statistically significant at ** p < 0.01 and *** p < 0.001. ns, not significant.

[2] = system: Escherichia coli (KCTC 1682); test: microbe, parasite or virus in culture; details: for MIC: Escherichia coli, KCTC1682, 16 h, read-out: Minimum Inhibitory Concentration, E. coli; for Minimum Inhibitory Concentration, E. coli: MH media, 2 × 10^5 CFU·mL^−1, 37 °C, 16 h, absorbance 600 nm, MIC kills more than 99% of bacteria
Excerpt: as §1
(§2) Measurement of the minimum inhibitory concentrations (MIC) was conducted to determine the effect of the hydrophobicity of each antimicrobial peptide on its antimicrobial activity. MIC was defined as the minimum concentration that killed more than 99% of bacteria; it was measured against two standard Gram-negative bacteria (E. coli and A. baumanii), five clinically isolated CRAB (C1–C5), and one Gram-positive bacteria (S. aureus).

CRAB C2 [3] = test: microbe, parasite or virus in culture; details: 16 h; for MIC: Acinetobacter baumannii, read-out: Minimum Inhibitory Concentration, CRAB C2; for Minimum Inhibitory Concentration, CRAB C2: MH media, 2 × 10^5 CFU·mL^−1, 37 °C, absorbance 600 nm
Excerpt: as §1, §2

CRAB C1 [4] = test: microbe, parasite or virus in culture; details: 16 h; for MIC: Acinetobacter baumannii; for Minimum Inhibitory Concentration, CRAB C1: MH media, 2 × 10^5 CFU·mL^−1, 37 °C, absorbance 600 nm
Excerpt: as §1, §2

CRAB C5 [5] = test: microbe, parasite or virus in culture; details: 16 h; for MIC: Acinetobacter baumannii, read-out: Minimum Inhibitory Concentration, CRAB C5; for Minimum Inhibitory Concentration, CRAB C5: MH media, 2 × 10^5 CFU·mL^−1, 37 °C, absorbance 600 nm
Excerpt: as §1, §2

CRAB C4 [6] = test: microbe, parasite or virus in culture; details: 16 h; for MIC: Acinetobacter baumannii, read-out: Minimum Inhibitory Concentration, CRAB C4; for Minimum Inhibitory Concentration, CRAB C4: MH media, 2 × 10^5 CFU·mL^−1, 37 °C, absorbance 600 nm
Excerpt: as §1, §2

CRAB C3 [7] = test: microbe, parasite or virus in culture; details: 16 h; for MIC: Acinetobacter baumannii, read-out: Minimum Inhibitory Concentration, CRAB C3; for Minimum Inhibitory Concentration, CRAB C3: MH media, 2 × 10^5 CFU·mL^−1, 37 °C, absorbance 600 nm
Excerpt: as §1, §2

[8] = system: Acinetobacter baumannii (KCCM 40203); test: microbe, parasite or virus in culture; details: for MIC: Acinetobacter baumannii, KCCM40203, 16 h, read-out: Minimum Inhibitory Concentration, A. baumanii; for Minimum Inhibitory Concentration, A. baumanii: KCCM 40203, 16 h
Excerpt: as §1, §2

[9] = system: Staphylococcus aureus (KCTC 1621); test: microbe, parasite or virus in culture; details: for MIC: Staphylococcus aureus, KCTC1621, 16 h, read-out: Minimum Inhibitory Concentration, S.aureus; for Minimum Inhibitory Concentration, S.aureus: KCTC 1621, 16 h
Excerpt: as §1, §2

CRAB C2 [10] = test: microbe, parasite or virus in culture; details: Acinetobacter baumannii, 16 h, read-out: MIC alone, CRAB C2
Experimental: (§3) The synergistic effects of AMPs and antibiotics were measured using checkerboard assays. Serial dilutions of PapMA-3 and antibiotics were performed from 1 to […] of the MIC. Samples were then cross-mixed and cultured in MH medium with 2 × 10^5 CFU·ml^−^1 bacteria. Results were recorded after 16 h of incubation at 37 °C. The fractional inhibitory concentration index (FICI) was calculated according to the European Committee on Antimicrobial Susceptibility (EUCAST).
(§4) The ability of PapMA-3 to facilitate these antibiotics in penetrating the bacterial membranes of Gram-negative bacteria was investigated.

CRAB C1 [11] = test: microbe, parasite or virus in culture; details: Acinetobacter baumannii, 16 h, read-out: MIC alone, CRAB C1
Experimental: as §3, §4

CRAB C5 [12] = test: microbe, parasite or virus in culture; details: Acinetobacter baumannii, 16 h, read-out: MIC alone, CRAB C5
Experimental: as §3, §4

CRAB C4 [13] = test: microbe, parasite or virus in culture; details: Acinetobacter baumannii, 16 h, read-out: MIC alone, CRAB C4
Experimental: as §3, §4

CRAB C3 [14] = test: microbe, parasite or virus in culture; details: Acinetobacter baumannii, 16 h, read-out: MIC alone, CRAB C3
Experimental: as §3, §4

[15] = 32 μg·mL^−1, CRAB C1, compared to the control
[16] = read-out: Minimum Inhibitory Concentration, CRAB C1

Compound	MIC [1]	MIC [2]	MIC (CRAB C2 [3])	MIC (CRAB C1 [4]; [16])	MIC (CRAB C5 [5])	MIC (CRAB C4 [6])	MIC (CRAB C3 [7])	MIC [8]	MIC [9]	MIC (CRAB C2 [10])	MIC (CRAB C1 [11])	MIC (CRAB C5 [12])	MIC (CRAB C4 [13])	MIC (CRAB C3 [14])	GM (mean MIC of Gram-negative bacterial strains) [1]	Minimum Inhibitory Concentration, E. coli [2]	Minimum Inhibitory Concentration, CRAB C2 (CRAB C2 [3])	Minimum Inhibitory Concentration, CRAB C1 (CRAB C1 [4])	Minimum Inhibitory Concentration, CRAB C5 (CRAB C5 [5])	Minimum Inhibitory Concentration, CRAB C4 (CRAB C4 [6])	other results
C[C@@H](O)[C@H]1C(=O)N2C(C(=O)O)=C(SCCN=CN)C[C@H]12 [Imipenem]	46 µg/mL	0.25 µg/mL (≈ 0.835 µM)	64 µg/mL (≈ 214 µM)	64 µg/mL (≈ 214 µM)	64 µg/mL (≈ 214 µM)	64 µg/mL (≈ 214 µM)	64 µg/mL (≈ 214 µM)	0.25 µg/mL (≈ 0.835 µM)	1 µg/mL (≈ 3.34 µM)	64 µg/mL	64 µg/mL	64 µg/mL	64 µg/mL	64 µg/mL							inhibition at 32 µg/mL (CRAB C1 biofilm; [15]): 88.9%; MIC (CRAB C1 [4]; read-out: Minimum Inhibitory Concentration, CRAB C1, MH Media): 64 µg/mL (≈ 214 µM)
C[C@@H](O)[C@H]1C(=O)N2C(C(=O)O)=C(S[C@@H]3CN[C@H](C(=O)N(C)C)C3)[C@H](C)[C@H]12 [Meropenem]	64 µg/mL	0.25 µg/mL (≈ 0.652 µM)	64 µg/mL (≈ 167 µM)	128 µg/mL (≈ 334 µM)	64 µg/mL (≈ 167 µM)	128 µg/mL (≈ 334 µM)	64 µg/mL (≈ 167 µM)	0.25 µg/mL (≈ 0.652 µM)	1 µg/mL (≈ 2.61 µM)	64 µg/mL	128 µg/mL	64 µg/mL	128 µg/mL	64 µg/mL							inhibition at 32 µg/mL (CRAB C1 biofilm; [15]): 79.2%
RWKIFKKIPKFLHSAKKF-NH2 [PapMA]															34 µg/mL	32 µg/mL	32 µg/mL	32 µg/mL	32 µg/mL	64 µg/mL	Minimum Inhibitory Concentration, CRAB C3 (CRAB C3 [7]): 16 µg/mL; Minimum Inhibitory Concentration, A. baumanii [8]: 32 µg/mL; Minimum Inhibitory Concentration, S.aureus [9]: 64 µg/mL
RWKIFKKIPKFLHSWKKW-NH2 [PapMA-6]															11 µg/mL	16 µg/mL	8 µg/mL	8 µg/mL	16 µg/mL	16 µg/mL	Minimum Inhibitory Concentration, CRAB C3 (CRAB C3 [7]): 8 µg/mL; Minimum Inhibitory Concentration, A. baumanii [8]: 8 µg/mL; Minimum Inhibitory Concentration, S.aureus [9]: 32 µg/mL
CC(=O)NC[C@H]1CN(c2ccc(N3CCOCC3)c(F)c2)C(=O)O1 [Linezolid]	329 µg/mL	256 µg/mL (≈ 759 µM)	256 µg/mL (≈ 759 µM)	256 µg/mL (≈ 759 µM)	512 µg/mL (≈ 1520 µM)	512 µg/mL (≈ 1520 µM)	256 µg/mL (≈ 759 µM)	256 µg/mL (≈ 759 µM)	1 µg/mL (≈ 2.96 µM)	256 µg/mL	256 µg/mL	512 µg/mL	512 µg/mL	256 µg/mL							inhibition at 32 µg/mL (CRAB C1 biofilm; [15]): 4.4%
CN[C@H](CC(C)C)C(=O)N[C@H]1C(=O)N[C@@H](CC(N)=O)C(=O)N[C@H]2C(=O)N[C@H]3C(=O)N[C@H](C(=O)N[C@H](C(=O)O)c4cc(O)cc(O)c4-c4cc3ccc4O)[C@H](O)c3ccc(c(Cl)c3)Oc3cc2cc(c3O[C@@H]2O[C@H](CO)[C@@H](O)[C@H](O)[C@H]2O[C@H]2C[C@](C)(N)[C@H](O)[C@H](C)O2)Oc2ccc(cc2Cl)[C@H]1O [Vancomycin]	274 µg/mL	128 µg/mL (≈ 88.3 µM)	256 µg/mL (≈ 177 µM)	256 µg/mL (≈ 177 µM)	256 µg/mL (≈ 177 µM)	512 µg/mL (≈ 353 µM)	256 µg/mL (≈ 177 µM)	256 µg/mL (≈ 177 µM)	0.5 µg/mL (≈ 0.345 µM)	256 µg/mL	256 µg/mL	256 µg/mL	512 µg/mL	256 µg/mL							inhibition at 32 µg/mL (CRAB C1 biofilm): 77.2%
RWKIFKKIPKFLHSAKKA-NH2 [PapMA-2]															146 µg/mL	64 µg/mL	>128 µg/mL	128 µg/mL	128 µg/mL	>128 µg/mL	Minimum Inhibitory Concentration, CRAB C3 (CRAB C3 [7]): 64 µg/mL; Minimum Inhibitory Concentration, A. baumanii [8]: 128 µg/mL; Minimum Inhibitory Concentration, S.aureus [9]: >128 µg/mL
CO[C@H]1/C=C/O[C@@]2(C)Oc3c(C)c(O)c4c(O)c(c(/C=N/N5CCN(C)CC5)c(O)c4c3C2=O)NC(=O)/C(C)=C\C=C\[C@H](C)[C@H](O)[C@@H](C)[C@@H](O)[C@@H](C)[C@H](OC(C)=O)[C@@H]1C [Rifampin]	101 µg/mL	2 µg/mL (≈ 2.43 µM)	64 µg/mL (≈ 77.8 µM)	128 µg/mL (≈ 156 µM)	256 µg/mL (≈ 311 µM)	128 µg/mL (≈ 156 µM)	128 µg/mL (≈ 156 µM)	4 µg/mL (≈ 4.86 µM)	1 µg/mL (≈ 1.22 µM)	64 µg/mL	128 µg/mL	256 µg/mL	128 µg/mL	128 µg/mL							inhibition at 32 µg/mL (CRAB C1 biofilm; [15]): 77.5%
RWKIFKKIPKFLHSFKKF-NH2 [PapMA-4]															10 µg/mL	16 µg/mL	8 µg/mL	8 µg/mL	8 µg/mL	16 µg/mL	Minimum Inhibitory Concentration, CRAB C3 (CRAB C3 [7]): 8 µg/mL; Minimum Inhibitory Concentration, A. baumanii [8]: 8 µg/mL; Minimum Inhibitory Concentration, S.aureus [9]: 32 µg/mL
RWKIFKKIPKFLHSWKKF-NH2 [PapMA-5]															18 µg/mL	16 µg/mL	16 µg/mL	16 µg/mL	16 µg/mL	32 µg/mL	Minimum Inhibitory Concentration, CRAB C3 (CRAB C3 [7]): 16 µg/mL; Minimum Inhibitory Concentration, A. baumanii [8]: 16 µg/mL; Minimum Inhibitory Concentration, S.aureus [9]: 32 µg/mL

— paper PMC8619914, “Development of Novel Peptides for the Antimicrobial Combination Therapy against Carbapenem-Resistant Acinetobacter baumannii Infection” (Pharmaceutics, 2021)
